Read-outs that look alike come from different tables or passages of the source.
Assays:
L. major promastigotes = test: L. major promastigote drug susceptibility assay (alamar blue, 384-well); type: cell-based, Leishmania major; settings: for primary hit (≥50% inhibition of signal readout): single concentration 10 µM, LOPAC, UP-CMLD DP validation set or PMLSC library
Experimental: Promastigotes were grown in vented T75 tissue culture flasks and maintained at 28°C. Promastigote cultures were initiated at 10^5 parasites per mL and subcultured every 3–4 days. L. major promastigote counts were performed in duplicate using a hemocytometer and particle counter (Beckman Coulter, Fullerton, CA). For HTS assays, L. major promastigote cultures were harvested during exponential growth phase (∼2.0–3.0×10^7 parasites/mL) and were not maintained past passage 20.
The final test compound concentration was 10 µM with a constant DMSO concentration of 1% in each assay well.
The L. major promastigote drug susceptibility assay was performed in a final volume of 25 µL using our previously described 384-well microtiter plate format,[39]. For automated HTS procedures, L. major promastigotes (5,000 parasites/22 µL) in complete growth medium were seeded into each well of the microtiter plates using a MAPC2 bulk dispenser (Titertek, Huntsville, AL). Test and control compounds (3 µL) were added to individual wells using a Velocity 11 V-prep (Menlo Park, CA) liquid handling system, equipped with a 384-well dispensing head, followed by centrifugation at 50 g for 1 min. […] Assay plates were allowed to incubate for 44 h at 28°C in the presence of 5% CO2. Five µL of alamar blue reagent were added to each assay plate well and incubated for 4 h at 28°C with 5% CO2. Data were captured on a Molecular Devices SpectraMax M5 (excitation560; emission590). Individual assay plate Z-factors were derived from the vehicle and positive controls, and data from plates were used only if Z-factors were >0.5 [50].
The assays were performed in duplicate with a final 10-point concentration range spanning 0.01–5.00 µM.

A549 = test: Mammalian cell line specificity assay (alamar blue); type: cell-based, human; settings: Table S1; PMLSC library samples; read-out: EC50 Ave ± SD, A549
Experimental: Mammalian cells were cultured and maintained according to ATCC specifications (ATCC, Manassas, VA). Cell line drug susceptibility assays were performed in final volumes of 25 µL using our previously described 384-well microtiter plate format,[39]. […] Test and control compounds were added to individual wells as described above. Vehicle and positive controls were 1% DMSO and 10% DMSO, respectively (final well concentrations). Assay plates were incubated for 44–46 h at 37°C in the presence of 5% CO2 and growth inhibitory effects were determined as described above. Five µL of alamar blue reagent was added to each well and incubated for 2–4 h. Data were captured as described above.

[1] = Table S1, PMLSC library samples, 10-point 0.01–5.00 µM, read-out: EC50 Ave ± SD, Lm
[2] = Leishmania major, assay optimization, 384-well format, read-out: EC50, L. major promastigotes, known leishmanicidals

EC50 (L. major promastigotes; [1]) [µM] | EC50 (A549) [µM] | Compound | other results
0.229 ± 0.034 | > 5 | Cc1ccc(-c2cc3cccc[n+]3cc2-c2ccc(C)cc2)cc1 [CID 13481921] | –
0.122 ± 0.012 | > 5 | CCCOC(=O)CSC1=C(C#N)C(c2ccccc2Cl)CC(=O)N1 (stereo not shown) [CID 2855568] | –
0.211 ± 0.047 | > 5 | Cc1ccccc1NC1=C/C(=N\S(=O)(=O)c2cccs2)c2ccccc2C1=O [CID 11834470] | –
0.164 ± 0.042 | > 5 | COc1cc(CNCc2cccs2)ccc1OCc1ccccc1 [CID 2964134] | –
0.788 ± 0.114 | 0.151 ± 0.01 | CCOC(=O)N=Nc1c2ccccc2c2nc3no[nH]c3nc12 [CID 5833488] | –
0.255 ± 0.021 | > 5 | COc1ccc2c3c(cccc13)NN=C2C [CID 644992] | –
0.06 ± 0.0001 | > 5 | COCCCNCCCCOc1ccc(Br)cc1Cl [CID 2923184] | –
– | – | CCN(CC)CCCC(C)Nc1c2ccc(Cl)cc2nc2ccc(OC)cc12 (stereo not shown) [quinacrine, reference compound] | primary hit (≥50% inhibition of signal readout) (L. major promastigotes): primary hits
0.01 ± 0.003 | > 5 | CC(C)CCN(C)C1CCN(S(=O)(=O)c2cccc(C(F)(F)F)c2)CC1 [CID 6602880] | –
0.015 ± 0.001 | > 5 | Cc1cc(/C=C2\Sc3ccccc3N2C)cc(C)[n+]1CC1CCCO1 (stereo not shown) [CID 16196319] | –
0.218 ± 0.054 | 1.06 ± 0.156 | CCCc1nc2c(=O)n(C)c(=O)nc-2n(C)n1 [CID 3164059] | –
0.165 ± 0.025 | > 5 | Cn1cc(CN2CCC(CO)CC2)c(-c2ccc(Oc3ccccc3)cc2)n1 [CID 16187569] | –
0.751 ± 0.11 | > 5 | CCc1ccc(NSc2ccccc2[N+](=O)[O-])cc1 [CID 2856077] | –
0.565 ± 0.035 | 2.11 ± 0.077 | N#CC(c1ccc(Cl)cc1)c1ccc2c(C(F)(F)F)cc(C(F)(F)F)nc2n1 (stereo not shown) [CID 3564202] | –
– | – | N=C(N)c1ccc(OCCCCCOc2ccc(C(=N)N)cc2)cc1 [pentamidine, reference compound] | EC50 (L. major promastigotes; [2]): 0.36 ± 0.02 µM
– | – | COc1c(C)c2c(c(O)c1C/C=C(\C)CCC(=O)O)C(=O)OC2 [mycophenolic acid, reference compound] | primary hit (≥50% inhibition of signal readout) (L. major promastigotes): primary hits
– | – | CC/C(=C(\c1ccccc1)c1ccc(OCCN(C)C)cc1)c1ccccc1 [tamoxifen, reference compound] | primary hit (≥50% inhibition of signal readout) (L. major promastigotes): primary hits
– | – | CC(=O)N1CCN(c2ccc(OCC3COC(Cn4ccnc4)(c4ccc(Cl)cc4Cl)O3)cc2)CC1 (stereo not shown) [ketoconazole, reference compound] | primary hit (≥50% inhibition of signal readout) (L. major promastigotes): primary hits
– | – | O=C(O)[C@@H]1[O][Sb](=[O])([O][Sb]2(=[O])[O][C@H]([C@H](O)CO)[C@H](O)[C@H](C(=O)O)[O]2)[O][C@H]([C@H](O)CO)[C@@H]1O.[Na+].[Na+].[Na+] (stereo partly shown) [sodium stibogluconate, reference compound] | EC50 (L. major promastigotes; assay optimization, 384-well format, read-out: EC50, L. major promastigotes, known leishmanicidals): > 100 µM
– | – | Clc1ccccc1C(c1ccccc1)(c1ccccc1)n1ccnc1 [Clotrimazole, reference compound] | primary hit (≥50% inhibition of signal readout) (L. major promastigotes): primary hits
– | – | NC[C@@H]1O[C@H](O[C@H]2[C@@H](O)[C@H](O[C@@H]3[C@@H](O)[C@H](N)C[C@H](N)[C@H]3O[C@H]3O[C@H](CO)[C@@H](O)[C@H](O)[C@H]3N)O[C@@H]2CO)[C@H](N)[C@@H](O)[C@@H]1O [paromomycin, reference compound] | EC50 (L. major promastigotes; [2]): 19.7 ± 0.6 µM
– | – | ivermectin [reference compound] | primary hit (≥50% inhibition of signal readout) (L. major promastigotes): primary hits
– | – | COc1ccc2cc3[n+](cc2c1OC)CCc1cc2c(cc1-3)OCO2 [berberine, reference compound] | primary hit (≥50% inhibition of signal readout) (L. major promastigotes): primary hits
– | – | O=C(Nc1ccc([N+](=O)[O-])cc1Cl)c1cc(Cl)ccc1O [niclosamide, reference compound] | primary hit (≥50% inhibition of signal readout) (L. major promastigotes): primary hits

Compound | EC50 (L. major promastigotes; [1]) [µM] | EC50 (A549) [µM] | other results
Cc1nc2c(=O)n(C)c(=O)nc-2n(C)n1 [CID 460747] | 0.202 ± 0.011 | 0.158 ± 0.018 | –
O=C(c1ccc(-c2ccccc2)c(F)c1)C1CCCN(CCO)C1 (stereo not shown) [CID 16187738] | 0.511 ± 0.044 | > 5 | –
COC(=O)C1CN(C#N)N(c2ccc(Cl)cc2)C12c1ccccc1-c1ccccc12 (stereo not shown) [CID 3609942] | 0.073 ± 0.013 | 2.75 ± 0.073 | –

— article PMC2765639 (PLoS Neglected Tropical Diseases, 2009)
